Measurements reported in PMC8634379, “From the Design to the In Vivo Evaluation of Benzohomoadamantane-Derived Soluble Epoxide Hydrolase Inhibitors for the Treatment of Acute Pancreatitis” (Journal of Medicinal Chemistry, 2021).

Key:
Microsomal stability [1] = conditions: after 60 min incubation, NADP, 37 °C
Experimental: (§1) The human, rat, and mice recombinant microsomes employed were purchased from Tebu–Xenotech. […] Samples (75 μL) were taken from each well at 0, 10, 20, 40, and 60 min and transferred to a plate containing 4 °C 75 μL of acetonitrile and 30 μL of 0.5% formic acid in water were added for improving the chromatographic conditions. The plate was centrifuged ([…], 30 min) and supernatants were taken and analyzed by an ultraperformance liquid chromatograph–tandem mass spectrometer (Xevo-TQD, Waters) by employing a BEH C18 column and an isocratic gradient of 0.1% formic acid in water: 0.1% formic acid acetonitrile (60:40). The metabolic stability of the compounds was calculated from the logarithm of the remaining compounds at each of the time points studied.

human sEH (hsEH) = target: T1, human sEH (hsEH) (Homo sapiens, UniProt P34913); assay: sEH inhibition, fluorescent-based assay (CMNPC substrate); assay type: biochemical; conditions: for fold difference (decrease) in hsEH potency: 17 vs 16 (oxygen for methylene), 18 vs 17 (hydrogen for methyl)
T1 sequence (P34913 1-555): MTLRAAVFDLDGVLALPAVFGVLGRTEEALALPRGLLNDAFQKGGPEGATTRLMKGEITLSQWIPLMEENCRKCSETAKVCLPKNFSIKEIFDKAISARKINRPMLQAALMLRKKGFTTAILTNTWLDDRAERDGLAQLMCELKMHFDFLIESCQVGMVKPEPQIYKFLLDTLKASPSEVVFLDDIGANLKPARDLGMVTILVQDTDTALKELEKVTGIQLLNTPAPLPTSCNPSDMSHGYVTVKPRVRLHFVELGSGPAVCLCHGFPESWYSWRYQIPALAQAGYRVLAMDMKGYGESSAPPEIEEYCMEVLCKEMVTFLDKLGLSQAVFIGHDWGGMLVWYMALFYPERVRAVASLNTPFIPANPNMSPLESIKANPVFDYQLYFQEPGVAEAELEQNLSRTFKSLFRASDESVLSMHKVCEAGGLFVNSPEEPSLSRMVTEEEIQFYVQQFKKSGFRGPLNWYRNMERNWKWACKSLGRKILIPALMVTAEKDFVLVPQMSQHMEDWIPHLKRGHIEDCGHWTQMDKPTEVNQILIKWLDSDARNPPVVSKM
Experimental: The IC50 values reported herein were determined using a fluorescent-based assay (CMNPC as substrate).[16] The fluorescent assay was used with purified recombinant human, mouse, or rat sEH proteins. The enzymes were incubated at 30 °C with the inhibitors ([I]final = 0.4–100,000 nM) for 5 min in 100 mM sodium phosphate buffer (200 μL, pH 7.4) containing 0.1 mg/mL of BSA and 1% of DMSO. The substrate (CMNPC) was then added ([S]final = 5 μM). […] Results were obtained by regression analysis from a linear region of the curve.

Microsomal stability [2] = assay type: in vitro ADME, mice; conditions: after 60 min incubation, NADP, 37 °C
Experimental: as §1

Microsomal stability [3] = assay type: in vitro ADME, human; conditions: after 60 min incubation, NADP, 37 °C
Experimental: as §1

[4] = purified recombinant enzyme, average of three replicates

Row | Compound | IC50 (human sEH (hsEH); [4]) [nM] | microsomal stability, percentage of remaining compound (mice) (Microsomal stability [2]) [%] | microsomal stability, percentage of remaining compound (human) (Microsomal stability [3]) [%] | fold difference (decrease) in hsEH potency (human sEH (hsEH)) [fold] | microsomal stability, percentage of remaining compound (rat) (Microsomal stability [1]) | IC50 (human sEH (hsEH); value given in the text) [nM]
1 | CC(=O)N1CCC(NC(=O)NC23CC4CC(C)(CC(C2)c2ccccc24)C3)CC1 [Compound 16, 1-(1-Acetylpiperidin-4-yl)-3-(9-methyl-5,6,8,9,10,11-hexahydro-7H-5,9:7,11-dimethanobenzo[9]annulen-7-yl)urea] | – | – | – | – | less than 1% | –
2 | Cc1ccc(OC(=O)NC23CC4CC(C)(CC(C2)c2ccccc24)C3)cc1 [Compound 11, p-Tolyl (9-Methyl-5,6,8,9,10,11-hexahydro-7H-5,9:7,11-dimethanobenzo[9]annulen-7-yl)carbamate] | > 10000 | – | – | – | – | 12700
3 | CC12CC3CC(NC(=O)Nc4ccc(F)c(F)c4F)(CC(C1)c1ccccc13)C2 [Compound 13, 1-(9-Methyl-5,6,8,9,10,11-hexahydro-7H-5,9:7,11-dimethanobenzo[9]annulen-7-yl)-3-(2,3,4-trifluorophenyl)urea] | 1 | 0.2 | 7 | – | – | –
4 | CC12CC3CC(NC(=O)N[C@H]4CC[C@H](Oc5ccc(C(=O)O)cc5)CC4)(CC(C1)c1ccccc13)O2 [Compound 21, 4-[((1r,4r)-4-(3-(5-Methyl-1,5,6,7-tetrahydro-1,5:3,7-Dimethanobenzo[e]oxonin-3(2H)-yl)ureido)cyclohexyl)oxy]benzoic Acid] | 28 | 83 | 90 | – | – | –

The next lines start with results.

Row | IC50 (human sEH (hsEH); [4]) [nM] | microsomal stability, percentage of remaining compound (mice) (Microsomal stability [2]) [%] | microsomal stability, percentage of remaining compound (human) (Microsomal stability [3]) [%] | fold difference (decrease) in hsEH potency (human sEH (hsEH)) [fold] | Compound | microsomal stability, percentage of remaining compound (rat) (Microsomal stability [1]) | IC50 (human sEH (hsEH); value given in the text) [nM]
5 | > 10000 | – | – | > 10 | CC(=O)N1CCC(NC(=O)NC23CC4CC(CC(C2)c2ccccc24)O3)CC1 [Compound 18, 1-(1-Acetylpiperidin-4-yl)-3-(1,5,6,7-tetrahydro-1,5:3,7-dimethanobenzo[e]oxonin-3(2H)-yl)urea] | – | –
6 | 941 | – | – | 300 | CC(=O)N1CCC(NC(=O)NC23CC4CC(C)(CC(C2)c2ccccc24)O3)CC1 [Compound 17, 1-(1-Acetylpiperidin-4-yl)-3-(5-methyl-1,5,6,7-tetrahydro-1,5:3,7-dimethanobenzo[e]oxonin-3(2H)-yl)urea] | – | –
7 | 20 | 23 | 77 | – | CC12CC3CC(NC(=O)Nc4ccc(F)c(F)c4F)(CC(C1)c1ccccc13)O2 [Compound 14, 1-(5-Methyl-1,5,6,7-hexahydro-1,5:3,7-dimethanobenzo[e]oxonin-3(2H)-yl)-3-(2,3,4-trifluorophenyl)urea] | 33% | –
8 | 138 | – | – | – | CC12CC3CC(NC(=S)Nc4ccc(C(F)(F)F)cc4)(CC(C1)c1ccccc13)C2 [Compound 9, 1-(9-Methyl-5,6,8,9,10,11-hexahydro-7H-5,9:7,11-dimethanobenzo[9]annulen-7-yl)-3-(4-(trifluoromethyl)phenyl)thiourea] | – | –
